Values quoted from earlier work, collected in patent US10688050B1 (Synthon B.V., priority 2018, dated 2020).
Where two headings read alike, the source gives them in different places.

Legend:
[1] = not given; remark: listed apart in the source

| solubility (BCS) | solubility ([1]; pH 1.2) | solubility ([1]; pH range from 3 to 8) | Structure (SMILES) |
| --- | --- | --- | --- |
| low | – | – | C=CC(=O)N1CCC[C@@H](n2nc(-c3ccc(Oc4ccccc4)cc3)c3c(N)ncnc32)C1 [Ibrutinib, 1-[(3R)-3-[4-amino-3-(4-phenoxyphenyl)-1H-pyrazolo[3,4-d]pyrimidin-1-yl]piperidin-1-yl]prop-2-en-1-one] |
| – | slightly soluble | practically insoluble | C=CC(=O)N1CCC[C@@H](n2nc(-c3ccc(Oc4ccccc4)cc3)c3c(N)ncnc32)C1 [ibrutinib form A] |
